{"source": "paper PMC10199020", "about": "(Nature Communications, 2023)", "key": {"[1]": {"target": "T1, NL-IL23R and IL12Rβ1 (IL-23 receptor) on HEK293T cells (Homo sapiens, UniProt P42701+Q5VWK5)", "T1 construct": "expressed in transfected cells; host or cells: HEK293T (ATCC CRL-3216), transient transfection", "T1 sequence (Q5VWK5 24-629, other chains not shown)": "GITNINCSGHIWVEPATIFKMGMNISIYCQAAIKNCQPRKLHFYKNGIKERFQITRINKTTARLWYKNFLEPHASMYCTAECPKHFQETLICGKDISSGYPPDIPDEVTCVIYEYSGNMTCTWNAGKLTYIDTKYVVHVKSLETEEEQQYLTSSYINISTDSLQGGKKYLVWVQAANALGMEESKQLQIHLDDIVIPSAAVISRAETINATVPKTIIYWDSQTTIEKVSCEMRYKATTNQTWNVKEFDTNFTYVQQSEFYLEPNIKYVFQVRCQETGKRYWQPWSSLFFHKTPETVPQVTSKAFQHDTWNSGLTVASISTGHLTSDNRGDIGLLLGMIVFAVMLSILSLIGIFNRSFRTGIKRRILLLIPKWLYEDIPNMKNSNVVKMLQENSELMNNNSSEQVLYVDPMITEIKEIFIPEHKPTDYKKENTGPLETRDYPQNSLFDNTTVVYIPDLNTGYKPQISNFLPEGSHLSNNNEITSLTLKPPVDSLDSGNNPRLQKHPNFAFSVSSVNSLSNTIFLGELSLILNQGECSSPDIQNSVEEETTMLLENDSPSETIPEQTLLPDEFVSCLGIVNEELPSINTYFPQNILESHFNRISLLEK", "test": "IL23-TMR NanoBRET competition assay", "assay_type": "binding", "settings": "300 pM IL23-TMR", "procedure": "Schematic created with Biorender.com. IL23R is shown in orange, IL12Rβ1 in purple, IL23p19 in blue, IL12p40 in green and the presence of a TAMRA fluorophore by a pink star. […] In b and c, data are mean ± SEM from 5 independent experiments conducted in either duplicate or triplicate. Details on absolute number of data points included for each concentration are provided in the associated Source Data file.\n(§1) Transient transfections for experiments outlined in Fig. 6 were conducted by seeding 100 μL of 2 × 10^5 cells/ml concentrated HEK293T cells into poly-D-lysine (PDL) coated white 96 well clear bottom assay microplates (Greiner) and incubating overnight. The following day transfection mixes were made up that contained a 4:1 ratio of IL23R to IL12Rβ1 constructs to a total concentration of 100 ng per well with a 0.3 μL per well of FuGENE HD transfection reagent (Promega) in OptiMEM (Gibco). These mixtures were incubated for 10 min before being added to the plate at 5 μL per well. The cells were then incubated overnight to allow expression. For all other experiments 2 mL containing 4 × 10^5 cells were seeded into 6 well plates and incubated 5 h before being transiently transfected with 100 μL per well of a transfection mix containing 2 μg of DNA and 6 μL of FuGENE HD. These cells were then incubated overnight before being re-suspended the following day and seeded into PDL coated white assay microplates at 100 μL containing 3 × 10^4 transfected cells. Cells were then incubated overnight before the experiment. Estimates of total expression levels for the different NL-constructs were made by comparing the luminescence levels achieved to that of a NanoLuciferase standard curve measured under the same conditions (Supplementary Fig. 1).\nMedia was removed from white 96-well microplates containing transfected cells and replaced with fluoroprobe in the presence or absence of antagonist in 50 μL Hanks Balanced Salt Solution (HBSS) with 1 mg/mL BSA (Merck).\n(§2) Antagonist competition data were fit with the equation:4 Y=Bmin+Bmax−Bmin/1+10^(LogXC50−[A])C Where ‘Bmax’ is the maximum BRET signal, ‘Bmin’ is the minimum BRET signal, ‘LogXC50’ is the log of the 50% inhibiting concentration of antagonist, ‘[A]’ is the concentration of antagonist and ‘C’ is the Hill slope."}, "[2]": {"target": "T1, NL-IL23R and IL12Rβ1 (IL-23 receptor) on HEK293T cells", "test": "P630-TMR NanoBRET competition assay", "assay_type": "binding", "settings": "Fig. 5a", "procedure": "as §1\nMedia was removed from white 96-well microplates containing transfected cells and replaced with fluoroprobe in the presence or absence of antagonist in 50 μL Hanks Balanced Salt Solution (HBSS) with 1 mg/mL BSA (Merck). After a 1-hour incubation at 37 °C without CO2, 5 μL of HBSS containing 77 μM furimizine was added to each well (final concentration 7 μM), the plate incubated for 5-minutes and the BRET signal measured using a PheraStar FS plate reader (BMG Labtech; data acquisition software version 5.41; MARS analysis software version 3.32) with a 450 ± 30 nm and >550 nm long pass filters.\nas §2"}, "[3]": {"target": "HiBit-IL23R and LgBit-IL12Rβ1 (Homo sapiens, UniProt Q5VWK5)", "sequence (Q5VWK5 24-629, other chains not shown)": "as above", "settings": "10 μM P630", "from_the_text": "Finally, we utilised a NanoBiT BRET system in which a complemented luciferase with fragments bound to both receptor subunits (Fig. 3) can be used as a BRET donor to measure interactions with binary receptor complexes.\nData in b are mean ± SEM from three independent experiments. In each individual experiment, triplicate determinations were made for total binding and duplicate or triplicate determinations made for non-specific binding. Data in c are the mean values obtained in five independent experiments, each conducted with six replicates. […] Data in d are the mean ± SEM from five (NL-IL23R and NL-23R + IL12Rβ1) or three (HiBit-IL23R + LgBit-IL12Rβ1) independent experiments. Source data are provided as a Source Data file."}}}
{"compound": "COc1ccc(C[C@H](NC(=O)[C@H]2NC(=O)[C@H](CCC(N)=O)NC(=O)[C@H](Cc3c[nH]c4ccccc34)NC(=O)[C@H]([C@@H](C)O)NC(=O)[C@H](CC(N)=O)NC(=O)[C@@H](NC(C)=O)C(C)(C)SSC2(C)C)C(=O)N[C@@H](Cc2ccc3ccccc3c2)C(=O)NC(C)(C)C(=O)N[C@@H](CCC(=O)O)C(=O)N[C@@H](CC(N)=O)C(=O)N[C@@H](CC(N)=O)C(N)=O)cc1", "note": "[P630]", "values": [{"measurement": "Inhibition of IL23-TMR binding (Mean)", "setting": "[1]; [P630] -5.09151 logM", "result": 84.0625}, {"measurement": "Inhibition of IL23-TMR binding (Mean)", "setting": "[1]; [P630] -5.56864 logM", "result": 77.8076}, {"measurement": "Inhibition of IL23-TMR binding (Mean)", "setting": "[1]; [P630] -6.04576 logM", "result": 62.3503}, {"measurement": "Inhibition of IL23-TMR binding (Mean)", "setting": "[1]; [P630] -6.52288 logM", "result": 55.1992}, {"measurement": "Inhibition of IL23-TMR binding (Mean)", "setting": "[1]; [P630] -7 logM", "result": 30.8209}, {"measurement": "Inhibition of IL23-TMR binding (Mean)", "setting": "[1]; [P630] -7.47712 logM", "result": 11.8559}, {"measurement": "Inhibition of IL23-TMR binding (Mean)", "setting": "[1]; [P630] -7.95424 logM", "result": 6.902}, {"measurement": "Inhibition of IL23-TMR binding (Mean)", "setting": "[1]; [P630] -8.90849 logM", "result": 4.004}, {"measurement": "Inhibition of IL23-TMR binding (Mean)", "setting": "[1]; [P630] -9.38561 logM", "result": -5.834}, {"measurement": "Inhibition of IL23-TMR binding (Mean)", "setting": "[1]; [P630] -9.86273 logM", "result": 10.7231}, {"measurement": "Displacement of 75 nM P630-TMR (Mean)", "setting": "[2]; [P630] -4.69897 logM", "result": 100.016}, {"measurement": "Displacement of 75 nM P630-TMR (Mean)", "setting": "[2]; [P630] -5.69897 logM", "result": 98.9078}, {"measurement": "Displacement of 75 nM P630-TMR (Mean)", "setting": "[2]; [P630] -6.69897 logM", "result": 89.0568}, {"measurement": "Displacement of 75 nM P630-TMR (Mean)", "setting": "[2]; [P630] -7.69897 logM", "result": 51.2574}, {"measurement": "Displacement of 75 nM P630-TMR (Mean)", "setting": "[2]; [P630] -8.69897 logM", "result": 11.835}, {"measurement": "Displacement of 75 nM P630-TMR (Mean)", "setting": "[2]; [P630] -9.69897 logM", "result": -0.3727}, {"measurement": "Displacement of 75 nM P630-TMR (Mean)", "setting": "[2]; [P630] -10.699 logM", "result": 3.757}, {"measurement": "Displacement of 75 nM P630-TMR (Mean)", "setting": "[2]; [P630] -11.699 logM", "result": 1.217}, {"measurement": "Effect on receptor dimerisation (NanoLuc complementation)", "setting": "[3]", "result": "did not affect receptor dimerisation"}]}
